According to US7807422B2, “Production of flavonoids by recombinant microorganisms” (The Research Foundation of State University of New York, priority 2004, dated 2010):

Experiments:
[1] = test system: A. andraeanum DFR; test: Biotransformation assay of flavanones with recombinant E. coli harboring Anthurium DFR (flavanone reductase activity); format: cell-based, Anthurium andraeanum; conditions: substrate 0.4 mg/mL, 30° C., 24 hours, HPLC
Protocol: Seed cultures of recombinant E. coli harboring Anthurium DFR were grown in LB with 100 μg/mL ampicillin. After 24 hours, the preinoculum was used to seed a 50-mL main culture which was incubated at 37° C. until A600 reached 0.5. IPTG and flavanone substrates were added at a final concentration of 2 mM and 0.4 mg/mL respectively, and incubation proceeded at 30° C. for 24 hours before harvesting. Flavonoid products in the culture supernatant were extracted twice with an equal volume of ethyl acetate. The organic solvent was collected and evaporated using a rotary evaporator, and the residue was dissolved in water.
The products were analyzed by HPLC using an Agilent HPLC 1100 series instrument with a diode array detector. HPLC was carried out using a reverse phase ZORBAX SB-C18 column (diameter 4.6 mm×150 mm) using an acetonitrile (solvent A) and water (solvent B) gradient at a flow rate of 1 ml/min. The HPLC program conditions used were as follows: 10% to 40% A (0-10 min), 40% to 60% A (10-15 min), 60% A (15-20 min). Absorbance at 280 nm was monitored in all cases. […] The UV maximum for the various flavan-4-ols synthesized were: 276 nm for 2,4-cis-flavan-4-ol; 275 nm for 2,4-trans-flavan-4-ol; 281 nm for 2,4-cis-7-hydroxyflavan-4-ol; and 279 nm for 2,4-trans-7-hydroxyflavan-4-ol.
Besides NAR and ERI, four other commercially available flavanones were tested as substrates using the recombinant A. andraeanum DFR enzyme. The biotransformation assay was chosen for that purpose, since these flavanones cannot be synthesized as radio-isotopomers.

[2] = test system: Recombinant DFR I. nil; test: In vitro DFR/FNR enzymatic reaction, TLC analysis; format: biochemical, Ipomoea nil; conditions: compound as substrate; pH 6.5, 30° C.
Protocol: (§1) Vector pTrcHis2-TOPO, either empty (control) or harboring the various cDNA sequences, was transformed into E. coli strain TOP10F′ (Invitrogen). Individual colonies were grown overnight in 3-mL Luria-Broth (LB) cultures with 100 μg/mL Ampicillin. The seed culture was used the following day to start a 50-mL main culture with an initial absorbance at 600 nm (A600) of 0.05. The main culture was left to grow at 37° C. until A600 reached 0.5-0.8. At that point, the inducer IPTG (isopropyl β-thiogalactoside) at a final concentration of 2 mM was added and the culture was left to grow for 4 hours at 30° C. Cells were harvested by centrifugation, resuspended in 5 mL of buffer (0.1 M K2HPO4/KH2PO4, pH 6.5), and lysed by either sonication or glass beads.
(§2) In vitro DFR and FNR enzymatic reactions were performed using 186 Bq of radiolabeled substrate and incubation was performed at 30° C. for 30 min−1 hour for DFR tests, and 30 min−2.5 hours for FNR tests. Ethyl acetate extraction was performed (twice) at the end of the incubation period, with 100 μL ethyl acetate. The organic phase was analyzed on a precoated TLC cellulose plate (Merck, Germany). The products, leucoanthocyanins and flavan-4-ols were separated from the respective substrates, dihydroflavonols and flavanones by chromatography in chloroform:acetic acid:water (10:9:1) system. The detection and quantification of radioactivity was performed using Fuji BAS1000 Bio-Imaging Analyzer. Protein content was determined using Lowry procedure with crystalline BSA as a standard. In vitro reaction products were identified by a previously published Rf values from in vitro reactions using heterologously expressed DFR proteins from Malus domestica (Punyasiri, et al., 2004, Arch. Biochem. Biophys., 431:22-30). Using TLC chromatography with chloroform:acetic acid:water (10:9:1), the Rf(×100) values for various flavonoids are DHK: 68; DHQ: 35; DHM: 11; NAR: 93; ERI: 61; LPg: 18; LCy: 8; LDp: 14; Apf: 45; Ltf: 18.
(§3) The in vitro reactions were performed using the optimal conditions (pH 6.5, 30° C.). […] No products were formed when using crude extract from E. coli harboring empty vector. DHQ and DHM were accepted as substrates by all seven recombinant enzymes, however, only the recombinant DFR enzymes derived from A. andraeanum, A. thaliana, I. nil, R. hybrida, and F. ananassa were able to catalyze the formation of LPg (Table 18). […] In addition, no LPg could be detected in assays using DFR from I. purpurea and L. hybrid even when the reaction period was extended and the amount of protein was increased up to 100 μg. In all cases, substrate specificity appeared to be independent of temperature or pH changes.

[3] = test system: Recombinant DFR I. purpurea; test: In vitro DFR/FNR enzymatic reaction, TLC analysis; format: biochemical, Ipomoea purpurea; conditions: compound as substrate; pH 6.5, 30° C.
Protocol: as §1, §2, §3

[4] = molecular target: T1, Recombinant DFR A. thaliana (Arabidopsis thaliana, UniProt P51102); test: In vitro DFR/FNR enzymatic reaction, TLC analysis; format: biochemical; conditions: compound as substrate; pH 6.5, 30° C.
T1 construct: We amplified full-length cDNA of various plant DFR open reading frames by PCR and RT-PCR; made in house; host or cells: E. coli TOP10F′ (crude lysate)
T1 sequence (P51102 1-382): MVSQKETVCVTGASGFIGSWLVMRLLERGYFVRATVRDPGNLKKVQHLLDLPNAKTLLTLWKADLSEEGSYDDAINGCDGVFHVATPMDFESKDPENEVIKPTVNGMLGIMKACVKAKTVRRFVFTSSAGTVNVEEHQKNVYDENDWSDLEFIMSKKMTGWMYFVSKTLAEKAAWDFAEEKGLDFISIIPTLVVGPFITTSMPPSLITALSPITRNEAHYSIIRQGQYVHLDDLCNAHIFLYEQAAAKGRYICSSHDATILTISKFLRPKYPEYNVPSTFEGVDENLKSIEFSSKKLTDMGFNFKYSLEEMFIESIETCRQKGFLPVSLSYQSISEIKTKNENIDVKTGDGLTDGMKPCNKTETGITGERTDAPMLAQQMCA
Protocol: as §1, §2, §3

[5] = test system: Recombinant DFR L. hybrid; test: In vitro DFR/FNR enzymatic reaction, TLC analysis; format: biochemical, Lilium hybrid; conditions: compound as substrate; pH 6.5, 30° C.
Protocol: as §1, §2, §3

[6] = test system: Recombinant DFR F. ananassa; test: In vitro DFR/FNR enzymatic reaction, TLC analysis; format: biochemical, Fragaria ananassa; conditions: compound as substrate; pH 6.5, 30° C.
Protocol: as §1, §2, §3

[7] = test system: Recombinant DFR R. hybrida; test: In vitro DFR/FNR enzymatic reaction, TLC analysis; format: biochemical, Rosa hybrida; conditions: compound as substrate; pH 6.5, 30° C.
Protocol: as §1, §2, §3

[8] = test system: Recombinant DFR A. andraeanum; test: In vitro DFR/FNR enzymatic reaction, TLC analysis; format: biochemical, Anthurium andraeanum; conditions: compound as substrate; pH 6.5, 30° C.
Protocol: as §1, §2, §3

[9] = test system: flavanone biosynthesis in recombinant yeast strain INV-4G; test: Naringenin production from coumaric acid by INV-4G in the presence of apigenin (feedback inhibition); format: cell-based, S. cerevisiae
Description: Heterologous expression and fermentation. In order to assemble the two different flavone biosynthetic pathways, recombinant INVSc1 carrying plasmid Ycc4c181G was transformed with YC-FSI, YC-FSII or YC-FSII+CPR1 separately, yielding recombinant strains INV-4G+FSI, INV-4G+FSII, and INV-4G+FSII+CPR1. Yeast colonies harboring both plasmids were selected upon growth on SC agar plates lacking leucine and tryptophan (SC-Leu-Trp-). For flavone fermentation purposes, an individual recombinant yeast colony was grown overnight in 10-mL liquid SC-Leu-Trp-containing glucose at 30° C. with shaking. The following day, a portion of this culture was used to seed the main culture of SC-Leu-Trp-containing galactose and raffinose or MA-Leu-Trp-containing galactose and acetate to an Ab600 of 0.4. 0.5 mM of phenylpropanoid acid (cinnamic acid, p-coumaric acid, caffeic acid, ferulic acid) was then added to the main culture, and incubation was carried out at 30° C. with horizontal shaking for a maximum of 92 hours.
Considering that INV-4G+FSI produced more apigenin than INV-4G+FSII+CPR1, we tested the possibility that flavanone biosynthesis is feedback—inhibited by apigenin. For this purpose, recombinant yeast strain carrying only the four flavanone biosynthetic genes (INV-4G) was created by simultaneously inserting YP-4G and empty YCplac22 plasmid. INV-4G was then tested for the ability to generate naringenin from coumaric acid, in the presence of apigenin. […] In the presence of 1 mg/L apigenin, the production of naringenin at stationary phase was reduced by 14%.

[10] = test system: S. cerevisiae strain INVSC1 carrying plasmid Ycc4c181; test: Growth of recombinant yeast fed with phenylpropanoid acids; format: cell-based; conditions: preliminary data
Protocol: Yeast Shake Flask Experiment. A single colony of strain INVSC1 carrying plasmid Ycc4c181 was inoculated into 15 ml of SC-Leu minimal medium containing 2% glucose and was left to grow overnight at 30° C. with shaking (preinoculum). The following day, 50 ml induction medium (SC-Leu medium containing 2% galactose) was seeded with medium-free preinoculum to a final absorbance at 600 nm (A600) of 0.4. Cells were then left to grow at 30° C. with vigorous shaking for 4 hours. At that time, 50 μl of a 0.25 M stock solution of substrate (cinnamic acid, p-coumaric acid, caffeic acid or ferulic acid) were added to the culture to a final concentration of 0.25 mM. The culture was left to grow at 30° C. for a total of 65 hours with horizontal shaking. During that time, the culture was supplemented with another 50 μl of substrate stock every 12 hours for a total of 4 times.
Cinnamic acid was provided in a total of 5 increments to the culture. […] In all cases, after 65 hours of fermentation, only trace amounts of cinnamic acid were detected in the culture.
Flavanone compounds were identified by comparison of the retention time and UV profile with those of authentic standards and literature data.

[11] = test system: E. coli BL21 Star; test: Effect of phenylpropanoid acids on E. coli growth (growth curves); format: cell-based
Protocol: Growth Curves. In order to investigate the effect of Phenylpropanoid acids on E. coli growth, E. coli BL21 Star was inoculated in 3 ml M9 liquid minimum medium and was left to grow at 37° C. overnight (preinoculum). The following day, 1 ml from the preinoculum was transferred to either 50 ml M9 minimal or Luria-Bertani (LB) rich liquid medium and p-coumaric acid, caffeic acid or cinnamic acid were added in the culture at different final concentrations (0 mM, 0.2 mM, 0.5 mM, 1 mM and 2 mM). Cell growth was monitored by measuring the absorbance at 600 nm (A600).
Phenylpropanoid acids reduce E. coli growth. We tested the effect of both p-coumaric acid and cinnamic acid on E. coli growth by incubating BL21 Star in M9 minimum medium and LB rich medium in the presence of different concentration of these compounds (0 mM, 0.05 mM, 0.1 mM, 0.15 mM, 0.2 mM, 1 mM, and 2 mM). […] For example, in the case of p-coumaric acid in […], the growth rate dropped from 0.28 h^−1 (control, 0 mM) to 0.18 h^−1 (2 mM). Similarly, for cinnamic acid the growth rate dropped from 0.27 h^−1 (control, 0 mM) to 0.17 h^−1 (2 mM) in M9 minimal medium.

[12] = test system: E. coli JM109 carrying plasmid pK184; test: Effect of naringenin on E. coli growth; format: cell-based
Protocol: E. coli shake-flask experiments. The identification of compounds produced from recombinant E. coli strain JM109 carrying plasmid pDGFA184 was done in a similar way to what has already been described in the literature Hwang et al., 2003, Appl. Environ Microbiol., 69:2699-2706). More specifically, 3 ml of Luria-Broth rich medium containing 50 ug/ml kanamycin was inoculated with the recombinant strain and was incubated at 37° C. with vigorous shaking. The next day, 200 ml of LB containing 50 μg/ml kanamycin was inoculated with 1 ml of overnight culture and the culture was incubated at 37° C. with vigorous shaking at 300 rpm to an OD600 of approximately 0.6. Next, the inducer IPTG was added to the culture to a final concentration of 1 mM. In order to avoid the formation of inclusion bodies, after the addition of the inducer the culture was incubated at room temperature with vigorous shaking overnight. Next day the cells were harvested by centrifugation and washed twice with M9 minimal medium. The pellets were then resuspended in 200 ml M9 minimal medium containing 50 μg/ml kanamycin, 1 mM IPTG and various concentrations of naringenin. In order to measure growth curves, the cultures were left to grow at room temperature with vigorous shaking until late stationary phase was reached. For flavonoid extraction experiments, the cultures were left to grow at room temperature for 65 h, again with horizontal vigorous shaking.
We tested the effect of naringenin on E. coli growth by incubating cultures of JM109 carrying plasmid pK184 in M9 minimal medium (50 μg/ml kanamycin) in the presence of different concentrations of naringenin (0.1 mM, 0.3 mM, 0.5 mM and 1 mM).

COc1cc(OC)c2c(c1)OC(c1ccccc1)CC2=O (stereo not drawn) [5,7-dimethoxyflavanone]
reduction to the corresponding flavan-4-ol [1]: not

O=C1c2c(O)cc(O)cc2O[C@H](c2ccc(O)cc2)[C@H]1O [DHK, dihydrokaempferol]
Specific activity [2]: 0.3 pkatal/mg | Specific activity [3]: 0 pkatal/mg | Specific activity [4]: 0.002 pkatal/mg | Specific activity [5]: 0 pkatal/mg | Specific activity [6]: 14 pkatal/mg | Specific activity [7]: 0.4 pkatal/mg | Specific activity [8]: 21 pkatal/mg

O=C1c2c(O)cc(O)cc2O[C@H](c2cc(O)c(O)c(O)c2)[C@H]1O [DHM, dihydromyricetin]
Specific activity [2]: 1.5 pkatal/mg | Specific activity [3]: 1.5 pkatal/mg | Specific activity [4]: 1.0 pkatal/mg | Specific activity [5]: 1.2 pkatal/mg | Specific activity [6]: 1.4 pkatal/mg | Specific activity [7]: 1.3 pkatal/mg | Specific activity [8]: 1.4 pkatal/mg

O=C1c2c(O)cc(O)cc2O[C@H](c2ccc(O)c(O)c2)[C@H]1O [DHQ, dihydroquercetin]
Specific activity [2]: 1.3 pkatal/mg | Specific activity [3]: 1.2 pkatal/mg | Specific activity [4]: 1.3 pkatal/mg | Specific activity [5]: 1.3 pkatal/mg | Specific activity [6]: 1.2 pkatal/mg | Specific activity [7]: 1.0 pkatal/mg | Specific activity [8]: 1.4 pkatal/mg

O=C1C[C@@H](c2ccc(O)c(O)c2)Oc2cc(O)cc(O)c21 [ERI, eriodictyol]
Specific activity [2]: 0.6 pkatal/mg | Specific activity [3]: 0.6 pkatal/mg | Specific activity [4]: 0.6 pkatal/mg | Specific activity [5]: 0.6 pkatal/mg | Specific activity [6]: 0.6 pkatal/mg | Specific activity [7]: 0.7 pkatal/mg | Specific activity [8]: 0.8 pkatal/mg

O=c1cc(-c2ccc(O)cc2)oc2cc(O)cc(O)c12 [apigenin]
production of naringenin at stationary phase reduced by ([9]; 1 mg/L apigenin): 14% | naringenin production decline ([9]; 3 mg/L apigenin): approximately 60% | naringenin production decline ([9]; 10 mg/L apigenin): ~85%

O=C(O)C=Cc1ccccc1 [cinnamic acid]
concentration in the medium resulting in significant cell growth arrest [10]: above 0.5 mM | growth rate ([11]; 2 mM cinnamic acid, M9 minimal medium): 0.17 h⁻¹

O=C1CC(c2ccccc2)Oc2ccccc21 (stereo not drawn) [flavanone]
reduction to the corresponding flavan-4-ol [1]: able to reduce

COc1ccc([C@@H]2CC(=O)c3c(O)cc(O)cc3O2)cc1O [hesperetin]
reduction to the corresponding flavan-4-ol [1]: not

O=C1C[C@@H](c2ccc(O)cc2)Oc2cc(O)cc(O)c21 [naringenin]
final dry cell weight concentration ([12]; 1 mM naringenin in minimal medium, after 13 h cell growth): 0.492 mg/mL | reduction in the final dry cell weight ([12]; 1 mM naringenin vs control, 13 h): 16% | maximum specific growth rate ([12]; 1 mM naringenin, M9 minimal medium): 0.14 h⁻¹ | OD600 (final cell mass) ([12]; 1 mM naringenin, after 13 h of growth): 1.0 | Specific activity [2]: 0.3 pkatal/mg | Specific activity [3]: 0 pkatal/mg | Specific activity [4]: 0 pkatal/mg | Specific activity [5]: 0 pkatal/mg | Specific activity [6]: 0.5 pkatal/mg | Specific activity [7]: 0.4 pkatal/mg | Specific activity [8]: 0.7 pkatal/mg

O=C(O)/C=C/c1ccc(O)cc1 [p-coumaric acid]
growth rate ([11]; 2 mM p-coumaric acid, M9 rich medium): 0.18 h⁻¹
